For this assay, the system named is MV-4-11 cells. Description: Gene expression microarray analysis (Affymetrix PrimeView) and GSEA. It counts as cell-based, human. Set-up: RFU PODN (11730768_x_at) / Fold change /veh PODN (11730768_x_at) / RFU LINC00158 (11744669_a_at) / Fold change /veh LINC00158 (11744669_a_at) / RFU DUSP10 (11751237_a_at) / Fold change /veh DUSP10 (11751237_a_at) / RFU ID3 (11757404_x_at) / Fold change /veh ID3 (11757404_x_at) / RFU PLEKHG5 (11737974_s_at) / Fold change /veh PLEKHG5 (11737974_s_at) / RFU LRRC4B (11730491_at) / Fold change /veh LRRC4B (11730491_at) / RFU GIMAP4 (11747438_a_at) / Fold change /veh GIMAP4 (11747438_a_at) / RFU KRT8 (11758183_x_at) / Fold change /veh KRT8 (11758183_x_at) / RFU CNN1 (11734310_a_at) / Fold change /veh CNN1 (11734310_a_at) / RFU VPS37D (11726825_at) / Fold change /veh VPS37D (11726825_at) / RFU C10orf10 (11716522_x_at) / Fold change /veh C10orf10 (11716522_x_at) / RFU KIR2DL2 /// KIR2DL4 /// KIR2DL5A /// KIR2DL5B /// KIR2DS1 /// KIR2DS2 /// KIR2DS3 /// KIR2DS4 /// KIR3DL3 /// KIR3DL3 /// KIR3DS1 (11738374_at) / Fold change /veh KIR2DL2 /// KIR2DL4 /// KIR2DL5A /// KIR2DL5B /// KIR2DS1 /// KIR2DS2 /// KIR2DS3 /// KIR2DS4 /// KIR3DL3 /// KIR3DL3 /// KIR3DS1 (11738374_at) / RFU C1QL1 (11718748_at) / Fold change /veh C1QL1 (11718748_at) / RFU TMPRSS4 (11747572_a_at) / Fold change /veh TMPRSS4 (11747572_a_at) / RFU HAMP (11756126_x_at) / Fold change /veh HAMP (11756126_x_at) / RFU RNFT2 (11725882_a_at) / Fold change /veh RNFT2 (11725882_a_at) / RFU NR4A2 (11747474_a_at) / Fold change /veh NR4A2 (11747474_a_at) / RFU ABCC12 (11746883_a_at) / Fold change /veh ABCC12 (11746883_a_at) / RFU TMEM136 (11760407_x_at) / Fold change /veh TMEM136 (11760407_x_at) / RFU CLDN22 /// WWC2 (11732394_at) / Fold change /veh CLDN22 /// WWC2 (11732394_at) / RFU HLA-DPB1 (11760878_x_at) / Fold change /veh HLA-DPB1 (11760878_x_at) / RFU SPINT1 (11716480_a_at) / Fold change /veh SPINT1 (11716480_a_at) / RFU GAP43 (11754022_s_at) / Fold change /veh GAP43 (11754022_s_at) / RFU A4GNT (11735810_at) / Fold change /veh A4GNT (11735810_at) / RFU PRB3 (11715151_x_at) / Fold change /veh PRB3 (11715151_x_at) / RFU TUBB4B (11761932_at) / Fold change /veh TUBB4B (11761932_at) / RFU CAPN14 (11732068_a_at) / Fold change /veh CAPN14 (11732068_a_at) / RFU TMCC2 (11721928_a_at) / Fold change /veh TMCC2 (11721928_a_at) / RFU IRGQ (11745062_a_at) / Fold change /veh IRGQ (11745062_a_at) / RFU FAM174B (11720279_a_at) / Fold change /veh FAM174B (11720279_a_at) / RFU TMPRSS4 (11748680_a_at) / Fold change /veh TMPRSS4 (11748680_a_at) / RFU FAM212B (11763350_a_at) / Fold change /veh FAM212B (11763350_a_at) / RFU PLEKHG5 (11743358_a_at) / Fold change /veh PLEKHG5 (11743358_a_at) / RFU ZSCAN30 (11745921_a_at) / Fold change /veh ZSCAN30 (11745921_a_at) / RFU CMKLR1 (11741424_a_at) / Fold change /veh CMKLR1 (11741424_a_at) / RFU LOC101060620 /// MAPK8IP1 (11723275_at) / Fold change /veh LOC101060620 /// MAPK8IP1 (11723275_at) / RFU SPTSSB (11747773_x_at) / Fold change /veh SPTSSB (11747773_x_at) / RFU PRSS12 (11739890_at) / Fold change /veh PRSS12 (11739890_at) / RFU BIN1 (11741810_x_at) / Fold change /veh BIN1 (11741810_x_at) / RFU WNT11 (11732464_a_at) / Fold change /veh WNT11 (11732464_a_at) / RFU C10orf10 (11716521_a_at) / Fold change /veh C10orf10 (11716521_a_at) / RFU C5orf56 (11738089_at) / Fold change /veh C5orf56 (11738089_at) / RFU CYB561 (11721691_x_at) / Fold change /veh CYB561 (11721691_x_at) / RFU ANKRD19P (11752326_a_at) / Fold change /veh ANKRD19P (11752326_a_at) / RFU OR2T12 /// OR2T33 /// OR2T8 (11738714_s_at) / Fold change /veh OR2T12 /// OR2T33 /// OR2T8 (11738714_s_at) / RFU VCAN (11748164_a_at) / Fold change /veh VCAN (11748164_a_at) / RFU JSRP1 (11732532_at) / Fold change /veh JSRP1 (11732532_at) / RFU KRTAP10-11 (11738290_x_at) / Fold change /veh KRTAP10-11 (11738290_x_at) / RFU MYO3A (11730013_a_at) / Fold change /veh MYO3A (11730013_a_at) / RFU EBF3 (11725865_a_at) / Fold change /veh EBF3 (11725865_a_at) / RFU CAMK2N1 (11719241_x_at) / Fold change /veh CAMK2N1 (11719241_x_at) / RFU C5orf56 (11738088_a_at) / Fold change /veh C5orf56 (11738088_a_at) / RFU OLFML3 (11715873_a_at) / Fold change /veh OLFML3 (11715873_a_at) / RFU LOC100653217 /// NTM (11731650_a_at) / Fold change /veh LOC100653217 /// NTM (11731650_a_at) / RFU MAPK11 (11762145_a_at) / Fold change /veh MAPK11 (11762145_a_at) / RFU FIZ1 (11724087_x_at) / Fold change /veh FIZ1 (11724087_x_at) / RFU OASL (11726364_x_at) / Fold change /veh OASL (11726364_x_at) / RFU SOX15 (11748057_x_at) / Fold change /veh SOX15 (11748057_x_at) / RFU CD79A (11719716_a_at) / Fold change /veh CD79A (11719716_a_at) / RFU HIST1H1D (11736915_at) / Fold change /veh HIST1H1D (11736915_at) / RFU CASKIN2 (11723855_a_at) / Fold change /veh CASKIN2 (11723855_a_at) / RFU LOC730098 (11760151_x_at) / Fold change /veh LOC730098 (11760151_x_at) / RFU OR4N2 (11742367_at) / Fold change /veh OR4N2 (11742367_at) / RFU PRRT2 (11749266_a_at) / Fold change /veh PRRT2 (11749266_a_at) / RFU SNX32 (11753110_a_at) / Fold change /veh SNX32 (11753110_a_at) / RFU CDHR5 (11726645_a_at) / Fold change /veh CDHR5 (11726645_a_at) / RFU RCAN1 (11760418_a_at) / Fold change /veh RCAN1 (11760418_a_at) / RFU FAM167A (11723789_a_at) / Fold change /veh FAM167A (11723789_a_at) / RFU FAM26E (11764081_at) / Fold change /veh FAM26E (11764081_at) / RFU ISYNA1 (11749810_s_at) / Fold change /veh ISYNA1 (11749810_s_at) / RFU ACY1 (11761880_at) / Fold change /veh ACY1 (11761880_at) / RFU 11764098_at / Fold change /veh 11764098_at / RFU SAMD14 (11745864_x_at) / Fold change /veh SAMD14 (11745864_x_at) / RFU NPB (11741838_a_at) / Fold change /veh NPB (11741838_a_at) / RFU TMPRSS6 (11731388_a_at) / Fold change /veh TMPRSS6 (11731388_a_at) / RFU KRTAP10-2 (11738614_at) / Fold change /veh KRTAP10-2 (11738614_at) / RFU ARHGAP8 /// PRR5-ARHGAP8 (11727945_x_at) / Fold change /veh ARHGAP8 /// PRR5-ARHGAP8 (11727945_x_at) / RFU KRTAP5-7 /// NADSYN1 (11734609_at) / Fold change /veh KRTAP5-7 /// NADSYN1 (11734609_at) / RFU RASL12 (11751679_a_at) / Fold change /veh RASL12 (11751679_a_at) / RFU CDKN2B (11736163_a_at) / Fold change /veh CDKN2B (11736163_a_at) / RFU PRF1 (11729649_at) / Fold change /veh PRF1 (11729649_at) / RFU, ZNF638 /// ZNF638-IT1 / Fold change vs veh, ZNF638 /// ZNF638-IT1 / RFU, PANK3 / Fold change vs veh, PANK3 / RFU, SH3YL1 / Fold change vs veh, SH3YL1 / RFU, ZEB2 / Fold change vs veh, ZEB2 / RFU, NRIP1 / Fold change vs veh, NRIP1 / RFU, PTTG1IP / Fold change vs veh, PTTG1IP / RFU, CAPN2 / Fold change vs veh, CAPN2 / RFU, MED14 / Fold change vs veh, MED14 / RFU, SNORA58 / Fold change vs veh, SNORA58 / RFU, C1orf63 / Fold change vs veh, C1orf63 / RFU, LRRFIP1 / Fold change vs veh, LRRFIP1 / RFU, NDUFAF7 / Fold change vs veh, NDUFAF7 / RFU, SLC12A2 / Fold change vs veh, SLC12A2 / RFU, IBTK / Fold change vs veh, IBTK / RFU, ESF1 / Fold change vs veh, ESF1 / Fold change vs veh, TMEM50B / RFU, TAOK1 / Fold change vs veh, TAOK1 / RFU, ACBD3 / Fold change vs veh, ACBD3 / RFU, TMA16 / Fold change vs veh, TMA16 / RFU, RWDD3 / Fold change vs veh, RWDD3 / RFU, BCAT1 / Fold change vs veh, BCAT1 / RFU, EDEM3 / Fold change vs veh, EDEM3 / RFU, TMEM33 / Fold change vs veh, TMEM33 / RFU, WDR75 / Fold change vs veh, WDR75 / RFU, AHCTF1 / Fold change vs veh, AHCTF1 / RFU, TFRC / Fold change vs veh, TFRC / RFU, ZDHHC17 / Fold change vs veh, ZDHHC17 / RFU, NOM1 / Fold change vs veh, NOM1 / RFU, ARL8B / Fold change vs veh, ARL8B / RFU, ZBTB11 / Fold change vs veh, ZBTB11 / RFU, TAMM41 / Fold change vs veh, TAMM41 / RFU, KIAA1704 /// LOC100996395 / Fold change vs veh, KIAA1704 /// LOC100996395 / RFU, ING1 / Fold change vs veh, ING1 / RFU, TRMT61B / Fold change vs veh, TRMT61B / RFU, FUBP3 / Fold change vs veh, FUBP3 / RFU, TP53 / Fold change vs veh, TP53 / RFU, TNKS2 / Fold change vs veh, TNKS2 / RFU, ZFP14 / Fold change vs veh, ZFP14 / RFU, ACTR2 / Fold change vs veh, ACTR2 / RFU, PPP3R1 / Fold change vs veh, PPP3R1 / RFU, PIK3R1 / Fold change vs veh, PIK3R1 / RFU, HNRNPA1 / Fold change vs veh, HNRNPA1 / RFU, RNF170 / Fold change vs veh, RNF170 / RFU, ZNF28 / Fold change vs veh, ZNF28 / RFU, RNGTT / Fold change vs veh, RNGTT / RFU, OGT / Fold change vs veh, OGT / RFU, BRD1 / Fold change vs veh, BRD1 / RFU, MARS / Fold change vs veh, MARS / RFU, ZNF655 / Fold change vs veh, ZNF655 / RFU, FAHD1 / Fold change vs veh, FAHD1 / RFU, BDP1 / Fold change vs veh, BDP1 / RFU, LRRCC1 / Fold change vs veh, LRRCC1 / RFU, ARID1A / Fold change vs veh, ARID1A / RFU, ZNF146 / Fold change vs veh, ZNF146 / RFU, ZNF330 / Fold change vs veh, ZNF330 / RFU, GPN3 / Fold change vs veh, GPN3 / RFU, C9orf123 / Fold change vs veh, C9orf123 / RFU, N4BP2L2 / Fold change vs veh, N4BP2L2 / RFU, ARFIP1 / Fold change vs veh, ARFIP1 / RFU, FAM179B / Fold change vs veh, FAM179B / RFU, BCL10 / Fold change vs veh, BCL10 / RFU, UHRF1BP1L / Fold change vs veh, UHRF1BP1L / RFU, BET1 / Fold change vs veh, BET1 / RFU, CNOT2 / Fold change vs veh, CNOT2 / RFU, ZNF268 / Fold change vs veh, ZNF268 / Fold change vs veh, ZNF507 / RFU, DGCR2 / Fold change vs veh, DGCR2 / RFU, WDSUB1 / Fold change vs veh, WDSUB1 / Fold change vs veh, HSP90B1 /// MIR3652 / RFU, ADSS / Fold change vs veh, ADSS / RFU, GK / Fold change vs veh, GK / RFU, ZNF148 / Fold change vs veh, ZNF148 / RFU, TAF9 / Fold change vs veh, TAF9 / RFU, SLC1A5 / Fold change vs veh, SLC1A5 / RFU, SLMO2 / Fold change vs veh, SLMO2 / RFU, ABCC4 / Fold change vs veh, ABCC4 / RFU, LOC101060439 /// RAP1B / Fold change vs veh, LOC101060439 /// RAP1B / RFU, RFX7 / Fold change vs veh, RFX7 / RFU, GTPBP10 / Fold change vs veh, GTPBP10 / RFU, CNEP1R1 / Fold change vs veh, CNEP1R1 / RFU, BIVM-ERCC5 /// ERCC5 / Fold change vs veh, BIVM-ERCC5 /// ERCC5 / RFU, ILF3 / Fold change vs veh, ILF3 / RFU 11762660_at / Fold change /veh 11762660_at / RFU VCAN (11757783_s_at) / Fold change /veh VCAN (11757783_s_at) / RFU DDX43 (11728927_at) / Fold change /veh DDX43 (11728927_at) / RFU KRT8 (11758188_x_at) / Fold change /veh KRT8 (11758188_x_at) / RFU NKD1 (11759106_at) / Fold change /veh NKD1 (11759106_at) / RFU SRD5A1 (11742802_a_at) / Fold change /veh SRD5A1 (11742802_a_at) / RFU TPSAB1 /// TPSB2 (11721975_s_at) / Fold change /veh TPSAB1 /// TPSB2 (11721975_s_at) / RFU GSTM3 (11746129_a_at) / Fold change /veh GSTM3 (11746129_a_at) / RFU IL23R (11737362_x_at) / Fold change /veh IL23R (11737362_x_at) / RFU TMEM51 (11727254_a_at) / Fold change /veh TMEM51 (11727254_a_at) / RFU PIWIL2 (11732686_x_at) / Fold change /veh PIWIL2 (11732686_x_at) / RFU ORM1 (11744905_x_at) / Fold change /veh ORM1 (11744905_x_at) / RFU CCDC152 (11743942_at) / Fold change /veh CCDC152 (11743942_at) / RFU ECM1 (11717891_a_at) / Fold change /veh ECM1 (11717891_a_at) / RFU IL23R (11748794_a_at) / Fold change /veh IL23R (11748794_a_at) / RFU TNFAIP8L3 (11732012_x_at) / Fold change /veh TNFAIP8L3 (11732012_x_at) / RFU MBOAT4 (11741988_at) / Fold change /veh MBOAT4 (11741988_at) / RFU 11764193_at / Fold change /veh 11764193_at / RFU TMEM53 (11763286_at) / Fold change /veh TMEM53 (11763286_at) / RFU MAGEB2 (11727129_at) / Fold change /veh MAGEB2 (11727129_at) / RFU TMEM200A (11744735_a_at) / Fold change /veh TMEM200A (11744735_a_at) / RFU CCDC152 (11751479_a_at) / Fold change /veh CCDC152 (11751479_a_at) / RFU FAM211A (11726209_a_at) / Fold change /veh FAM211A (11726209_a_at) / RFU RGS16 (11746705_a_at) / Fold change /veh RGS16 (11746705_a_at) / RFU VCAN (11755009_s_at) / Fold change /veh VCAN (11755009_s_at) / RFU RHOB (11743442_s_at) / Fold change /veh RHOB (11743442_s_at) / RFU RGS16 (11720943_a_at) / Fold change /veh RGS16 (11720943_a_at) / RFU RGS16 (11720944_at) / Fold change /veh RGS16 (11720944_at) / RFU, VPS4B / Fold change vs veh, VPS4B / RFU, CREB1 / Fold change vs veh, CREB1 / RFU, DNAJC13 / Fold change vs veh, DNAJC13 / RFU, GNAQ / Fold change vs veh, GNAQ / RFU, CDK5R1 / Fold change vs veh, CDK5R1 / RFU, ZRANB3 / Fold change vs veh, ZRANB3 / RFU, CUL4A / Fold change vs veh, CUL4A / RFU, CCNY / Fold change vs veh, CCNY / RFU, UFL1 / Fold change vs veh, UFL1 / RFU, COG3 / Fold change vs veh, COG3 / RFU, DIAPH2 / Fold change vs veh, DIAPH2 / RFU, SKA2 / Fold change vs veh, SKA2 / RFU, AFF3 / Fold change vs veh, AFF3 / RFU, LMF1 / Fold change vs veh, LMF1 / RFU, IPO11 / Fold change vs veh, IPO11 / RFU, DFFB / Fold change vs veh, DFFB / RFU, FOXP1 / Fold change vs veh, FOXP1 / RFU, CARD8 / Fold change vs veh, CARD8 / RFU, STRN3 / Fold change vs veh, STRN3 / RFU, ADK / Fold change vs veh, ADK / RFU, RASSF2 / Fold change vs veh, RASSF2 / RFU, WIPF1 / Fold change vs veh, WIPF1 / RFU, LARP1B / Fold change vs veh, LARP1B / RFU, RASA1 / Fold change vs veh, RASA1 / RFU, RB1 / Fold change vs veh, RB1 / RFU, PPFIA1 / Fold change vs veh, PPFIA1 / RFU, MAT2A / Fold change vs veh, MAT2A / RFU, CCT5 / Fold change vs veh, CCT5 / RFU, WDR92 / Fold change vs veh, WDR92 / RFU, CUX1 / Fold change vs veh, CUX1 / RFU, TTC7A / Fold change vs veh, TTC7A / RFU, TMEM135 / Fold change vs veh, TMEM135 / RFU, DEPTOR / Fold change vs veh, DEPTOR / RFU, CPM / Fold change vs veh, CPM / RFU, DNAJB6 / Fold change vs veh, DNAJB6 / RFU, CACNA2D3 / Fold change vs veh, CACNA2D3 / RFU, DTX4 / Fold change vs veh, DTX4 / RFU, TFCP2 / Fold change vs veh, TFCP2 / RFU, GMCL1 /// GMCL1P1 / Fold change vs veh, GMCL1 /// GMCL1P1 / RFU, AEBP2 / Fold change vs veh, AEBP2 / RFU, SNHG1 /// SNORD22 /// SNORD25 /// SNORD26 /// SNORD27 /// SNORD28 /// SNORD29 /// SNORD31 / Fold change vs veh, SNHG1 /// SNORD22 /// SNORD25 /// SNORD26 /// SNORD27 /// SNORD28 /// SNORD29 /// SNORD31 / Fold change (Aza/veh), C12orf56 (ProbeSet 11735607_a_at) / Fold change (ACY-1035/veh), C12orf56 (ProbeSet 11735607_a_at) / Fold change (Aza/veh), FGFR1OP (ProbeSet 11751329_s_at) / Fold change (ACY-1035/veh), FGFR1OP (ProbeSet 11751329_s_at) / Fold change (Aza/veh), VPS36 (ProbeSet 11739960_a_at) / Fold change (ACY-1035/veh), VPS36 (ProbeSet 11739960_a_at) / RFU SYPL1 (11715823_x_at) / Fold change /veh SYPL1 (11715823_x_at) / RFU IGFBP7 (11715501_s_at) / Fold change /veh IGFBP7 (11715501_s_at) / RFU REEP3 (11722064_at) / Fold change /veh REEP3 (11722064_at) / RFU IGLL1 (11728026_x_at) / Fold change /veh IGLL1 (11728026_x_at): dose or concentration left out as unconfirmed. Particulars: MV-4-11 cells, 48 hours.

The text below walks through data of article PMC5218480 (PLoS ONE, 2017).

Consider `Nc1ncn([C@@H]2O[C@H](CO)[C@@H](O)[C@H]2O)c(=O)n1` [azacitidine], for which the “RFU PRB3 (11715151_x_at)” value amounted to 8.00 RFU.
